Assays:
[1] = tested on: human cytomegalovirus (HCMV) strain AD169 and TB 40; format: cell-based; conditions: human lung fibroblasts, IE staining
[2] = tested on: infected and uninfected human lung fibroblasts; experiment: Toxicity by propidium iodide staining of cell cultures; format: cell-based; conditions: method and source not stated
Description: The concentrations of compounds used in the viral experiments were at the μM level. Cellular toxicity for B-220 has been shown for concentrations above 100 μM.

[3] = tested on: HCMV; experiment: Test of inhibition of HCMV assembly and egress (modified plaque assay, 3 and 5 dpi); format: cell-based, human cytomegalovirus; conditions: left until 7 dpi, infected human lung fibroblast cells, IE staining; for Inhibition 3 dpi (%): agent added 3 dpi; for Inhibition 5 dpi (%): agent added 5 dpi

Compound	Inhibitory effect (%) as % inhibition of infection [1]	concentrations at which cellular toxicity has been shown [2]	Inhibition 3 dpi (%) [3]	Inhibition 5 dpi (%) [3]
Cc1cc2nc3c4ccccc4n(CCN(C)C)c3nc2cc1C [B-220, 2,3-dimethyl-6-(N,N-dimethylaminoethyl)-6H-indolo(2,3-b)quinoxaline]	20%	above 100 μM	65-85%	65-80%
O=C(O)P(=O)(O)O [Foscavir]	20-50%	–	85-100%	65-85%
Nc1nc(O)c2ncn(COC(CO)CO)c2n1 [Ganciclovir]	20-30%	–	100%	80-95%
Cc1oncc1C(=O)Nc1ccc(C(F)(F)F)cc1 [Leflunomide]	25-50%	–	65-80%	80-90%
